This passage reports IC50 results from US20040214832A1, “Piperazine derivative renin inhibitors” (priority 2003, published 2004).

What is called IC50 is the concentration needed to halve the response being measured.

A value given as a limit tells only on which side of the number the result lay.

For this assay, the target named is T1, human renin (Homo sapiens, UniProt P00797).
T1 sequence (P00797 67-406): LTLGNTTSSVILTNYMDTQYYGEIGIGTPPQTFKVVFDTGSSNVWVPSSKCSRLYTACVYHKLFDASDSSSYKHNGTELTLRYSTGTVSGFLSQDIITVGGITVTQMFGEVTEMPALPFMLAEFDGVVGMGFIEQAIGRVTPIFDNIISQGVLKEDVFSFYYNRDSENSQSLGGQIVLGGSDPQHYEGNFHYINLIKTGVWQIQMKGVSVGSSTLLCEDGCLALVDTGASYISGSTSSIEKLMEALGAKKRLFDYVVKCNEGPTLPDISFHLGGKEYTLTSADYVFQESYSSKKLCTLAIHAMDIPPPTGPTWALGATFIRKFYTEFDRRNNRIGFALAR
Nature of the assay: Determination of renin IC50 by tGFP FRET assay. The assay is classed as biochemical. Particulars: Human recombinant renin, tandem GFP substrate 650 nM, 60 min incubation with compound, pH 7.4, 11-point curve. From the text: Determination of Renin IC50 by tGFP FRET Assay
The tGFP FRET (fluorescence resonance energy transfer) assay utilizes a tandem GFP substrate (60 kDa, Discovery Technologies) containing nine amino acid recognition sequences for human renin flanked by two GFP proteins. The assay is used to determine the ability of a compound to act as an inhibitor of renin enzymatic activity by determination of that concentration of test compound that inhibits by 50% (IC50) the ability of renin to cleave the tandem GFP substrate. The IC50 values are determined over an 11-point curve at concentrations of 100 μM to 1 pM. Each compound concentration used to construct the curve was dependent on renin inhibitor potency. For example, subnanomolar IC50 values were determined over an 11-point curve at concentrations of 10 μM to 1 pM. All other IC50 values were determined over an 11-point curve at concentrations of 100 μM to 0.0065 μM. The concentrations were achieved by diluting a 9.1 nM stock of Human recombinant renin in the appropriate amount of buffer containing 50 mM HEPES, 1 mM EDTA, 1% PEG (8000 MW), 1 mM DTT, 0.1% BSA, pH 7.4 to achieve the final concentration of 50.4 μIU. The tGFP substrate stock solution of 43 μM was diluted with the appropriate amount of the above buffer to obtain the final concentration of 650 nM. In addition, 1 μl of the compound is diluted in dimethylsulfoxide (DMSO) to represent an […] log scale (5% final). The SR renin and compound are added to a 384 capacity plate by an automated robot (BIOMEK). The plate is incubated for 60 minutes; upon completion the tGFP substrate is added.
The IC50 is determined by monitoring the increase in […] at 432/432 nm excitation, 530/475 nm emission with a cutoff at 515/455 nm, in a fluorometric plate reader.
On to `COc1ccc(COC[C@H]2CNCCN2c2ccc(OCCCOCc3cc(F)cc(F)c3)cc2)cc1` [Example 67, (2R)-1-{4-[3-(3,5-difluorobenzyloxy)-propoxy]-phenyl}-2-(4-methoxybenzyloxymethyl)-piperazine], for which the IC50 came out at 4340 nM.
As for `COc1ccccc1COCCOCc1ccc(N2C(=O)CNC[C@@H]2COCc2ccc(F)cc2)cc1` [Example 74, (6R)-6-(4-fluorobenzyloxymethyl)-1-{4-[2-(2-methoxybenzyloxy)-ethoxymethyl]-phenyl}-piperazin-2-one], the IC50 stood at 4090 nM.
Regarding `COCCCOc1cc(N2C(=O)CNC[C@@H]2COc2ccc3ccccc3c2)ccc1OC` [Example 48, (6R)-1-[4-methoxy-3-(3-methoxypropoxy)-phenyl]-6-(naphthalen-2-yloxymethyl)-piperazin-2-one], the IC50 is 3840 nM.
On to `COCCCN1C(=O)CCc2ccc(OC[C@@H]3CNCC(=O)N3c3ccc(OCCCOCc4ccccc4OC)cc3)cc21` [Example 112, 7-([2S]-1-{4-[3-(2-Methoxybenzyloxy)-propoxy]-phenyl}-6-oxopiperazin-2-ylmethoxy)-1′-(3-methoxypropyl)-3,4-dihydro-1H-quinolin-2-one], for which the IC50 came to 1.7 nM.
In the case of `COc1ccc(COC[C@H]2CNCCN2c2ccc(OCCCOCc3ccc(C)cc3)cc2)cc1` [Example 68, (2R)-2-(4-methoxybenzyloxymethyl)-1-{4-[3-(4-methylbenzyloxy)-propoxy]-phenyl}-piperazine], the IC50 turned out to be 60200 nM.
Regarding `COc1ccccc1COCCCOc1ccc(N2CCNC[C@@H]2COc2ccc3c(c2)N(CCNC(C)=O)CCC3)cc1` [Example 125, N-{2-[7-([2R]-1-{4-[3-(2-Methoxybenzyloxy)-propoxy]-phenyl}-piperazin-2-ylmethoxy)-3,4-dihydro-2H-quinolin-1-yl]-ethyl}-acetamide], the half-maximal inhibitory concentration (IC50) came out at 0.53 nM.
`COc1ccccc1COCCCOc1ccc(N2C(=O)CNC[C@@H]2COc2ccc3ncccc3c2)cc1` [Example 52, (6R)-1-{4-[3-(2-methoxybenzyloxy)-propoxy]-phenyl}-6-(quinolin-6-yloxymethyl)-piperazin-2-one]: the IC50 worked out at 3450 nM.
For `CC(=O)NCCN1CCCc2ccc(OC[C@H]3CNCC(=O)N3c3ccc(OCCCOCc4ccccc4F)cc3)cc21` [Example 126, N-{2-[7-([2R]-1-{4-[3-(2-Fluorobenzyloxy)-propoxy]-phenyl}-6-oxopiperazin-2-ylmethoxy)-3,4-dihydro-2H-quinolin-1-yl]-ethyl}-acetamide], the IC50 is 5 nM.
As to `COc1ccccc1COCCCOc1ccc(N2C(=O)CNC[C@@H]2COCc2ccc(F)c(F)c2)cc1` [Example 4, (6R)-6-(3,4-difluorobenzyloxymethyl)-1-{4-[3-(2-methoxybenzyloxy)-propoxy]-phenyl}-piperazin-2-one], the IC50 stood at 246 nM.
On to `COCCCN1C(=O)COc2ccc(SC[C@H]3CNCC(=O)N3c3ccc(OCCCOCc4ccccc4OC)cc3)cc21` [Example 128, 6-([2R]-1-{4-[3-(2-Methoxybenzyloxy)-propoxy]-phenyl}-6-oxo-piperazin-2-ylmethylsulfanyl)-4-(3-methoxypropyl)-4H-benzo[1,4]oxazin-3-one], for which the IC50 came to 0.18 nM.
Regarding `COc1ccc(COC[C@H]2CNCCN2c2ccc(OCCCOCc3ccccc3OC)cc2)cc1` [Example 33, (2R)-2-(4-methoxybenzyloxymethyl)-1-{4-[3-(2-methoxy-benzyloxy)-propoxy]-phenyl}-piperazine], the concentration for half-maximal inhibition (IC50) was 3990 nM.
With `COc1ccccc1COCCCOc1ccc(N2C(=O)CNC[C@@H]2COc2ccc3c(c2)N(CC(N)=O)CCC3)cc1` [Example 56, 2-[7-(1-{4-[3-(2-methoxybenzyloxy)-propoxy]-phenyl}-6-oxopiperazin-(2R)-ylmethoxy)-3,4-dihydro-2H-quinolin-1-yl]-acetamide] the figure was 435 nM; with `COc1ccccc1COCCCOc1ccc(N2C(=O)CNC[C@@H]2COc2ccc3ccccc3c2)cc1F` [Example 39, (6R)-1-{3-fluoro-4-[3-(2-methoxybenzyloxy)-propoxy]-phenyl}-6-(naphthalen-2-yloxymethyl)-piperazin-2-one], 152 nM.
As to `COc1ccccc1COCCCOc1c(F)cc(N2C(=O)CNC[C@@H]2COc2ccc3ccccc3c2)cc1F` [Example 43, (6R)-1-{3,5-difluoro-4-[3-(2-methoxybenzyloxy)-propoxy]-phenyl}-6-(naphthalen-2-yloxymethyl)-piperazin-2-one], the IC50 was 883 nM.
As to `COc1ccc(COC[C@H]2CNCCN2c2ccc(OCCCOCc3ccc(Cl)cc3)cc2)cc1` [Example 62, (2R)-1-{4-[3-(4-chlorobenzyloxy)-propoxy]-phenyl}-2-(4-methoxybenzyloxymethyl)-piperazine], the IC50 is 43700 nM.
On to `COc1ccccc1COCCCOc1ccc(N2C(=O)CNC[C@@H]2COC(=O)c2ccccc2)cc1` [Example 61, benzoic acid (2R)-1-{4-[3-(2-methoxybenzyloxy)-propoxy]-phenyl}-6-oxopiperazin-2-yl methyl ester], for which the IC50 was more than 1000 nM.
Next, `COc1ccccc1COCCCOc1ccc(N2C(=O)CNC[C@@H]2CNC(=O)c2ccccc2)cc1` [Example 84, N-([2R]-1-{4-[3-(2-methoxy-benzyloxy)-propoxy]-phenyl}-6-oxopiperazin-2-ylmethyl)-benzamide]: more than 1000 nM; `COc1ccccc1COCCCOc1ccc(N2CCNC[C@@H]2COCc2cccc(-c3ccccc3)c2)cc1` [Example 91, (2R)-2-(biphenyl-3-ylmethoxymethyl)-1-{4-[3-(2-methoxybenzyloxy)-propoxy]-phenyl}-piperazine]: 1020 nM; `COc1ccccc1COCCCOc1ccc(N2C(=O)CNC[C@@H]2COCc2ccc(Cl)cc2)cc1` [Example 5, (6R)-6-(4-chlorobenzyloxymethyl)-1-{4-[3-(2-methoxybenzyloxy)-propoxy]-phenyl}-piperazin-2-one]: 295 nM.
As for `COc1ccccc1COCCCOc1ccc(N2C(=O)CNC[C@@H]2COCc2ccc(F)c(C(F)(F)F)c2)cc1` [Example 26, (6R)-6-(4-fluoro-3-trifluoromethylbenzyloxymethyl)-1-{4-[3-(2-methoxybenzyloxy)-propoxy]-phenyl}-piperazin-2-one], the IC50 was found to be 132 nM.
Regarding `COc1ccc(COC[C@H]2CNCCN2c2ccc(OCCCCOc3ccccc3OC)cc2)cc1` [Example 75, (2R)-2-(4-methoxybenzyloxymethyl)-1-{4-[4-(2-methoxyphenoxy)-butoxy]-phenyl}-piperazine], the IC50 stood at 42000 nM.
Next, `COC(=O)CN1C(=O)COc2ccc(OC[C@H]3CNCC(=O)N3c3ccc(OCCCOCc4ccccc4OC)cc3)cc21` [Example 118, [6-([2R]-1-{4-[3-(2-Methoxybenzyloxy)-propoxy]-phenyl}-6-oxo-piperazin-2-ylmethoxy)-3-oxo-2,3-dihydro-benzo[1,4]oxazin-4-yl]-acetic acid methyl ester]: 6.83 nM.
Next, `COc1ccc(COC[C@H]2CNCCN2c2ccc(OCCCOCc3ccccc3)cc2)cc1` [Example 34, (2R)-1-[4-(3-benzyloxypropoxy)-phenyl]-2-(4-methoxybenzyloxymethyl)-piperazine]: 10900 nM; `COc1ccccc1COCCCOc1ccc(N2C(=O)CNC[C@@H]2COCc2ccc(F)cc2)cc1` [Example 8, (6R)-6-(4-fluorobenzyloxymethyl)-1-{4-[3-(2-methoxybenzyloxy)-propoxy]-phenyl}-piperazin-2-one]: 454 nM.
